Laboratory results published in ChEMBL document CHEMBL1127820 (J Med Chem, 1994).

target: Norepinephrine transporter (Rattus norvegicus, UniProt Q9WTR4); test: Inhibition of [3H]nisoxetine binding to norepinephrine (NE) transporter
Sequence (Q9WTR4 whole entry): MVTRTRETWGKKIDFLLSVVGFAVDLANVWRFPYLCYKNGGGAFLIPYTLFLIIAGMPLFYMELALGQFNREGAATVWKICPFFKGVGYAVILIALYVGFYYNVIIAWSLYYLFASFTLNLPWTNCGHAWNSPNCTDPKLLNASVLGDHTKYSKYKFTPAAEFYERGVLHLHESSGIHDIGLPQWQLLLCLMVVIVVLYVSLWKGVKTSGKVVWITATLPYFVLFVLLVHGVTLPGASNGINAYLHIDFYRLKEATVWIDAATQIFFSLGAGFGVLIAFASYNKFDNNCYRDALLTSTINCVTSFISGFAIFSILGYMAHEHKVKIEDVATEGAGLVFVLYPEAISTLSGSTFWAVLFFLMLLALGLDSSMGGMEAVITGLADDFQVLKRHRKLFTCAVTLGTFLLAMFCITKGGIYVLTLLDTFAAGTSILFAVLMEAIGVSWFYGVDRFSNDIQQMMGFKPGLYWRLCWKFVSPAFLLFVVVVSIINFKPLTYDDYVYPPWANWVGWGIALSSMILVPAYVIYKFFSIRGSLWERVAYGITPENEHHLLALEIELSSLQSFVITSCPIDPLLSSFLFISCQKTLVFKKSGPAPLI

Row | Compound | IC50 [nM]
1 | COC(=O)[C@H]1[C@@H](c2ccc(F)cc2)C[C@H]2CC[C@H]1N2C | 834
2 | COC(=O)C1C2CCC(C[C@@H]1c1ccc(F)cc1)N2 (stereo not given in full) | 18.8
3 | CCc1ccc([C@H]2C[C@H]3CCC(N3)[C@H]2C(=O)OC)cc1 | 122
4 | CC(C)OC(=O)[C@@H]1C2CC[C@H](C[C@@H]1c1ccc(I)cc1)N2 | 132
5 | COC(=O)[C@@H]1C2CC[C@H](C[C@@H]1c1ccc(I)cc1)N2 | 7.54
6 | COC(=O)C1C2CCC(C[C@@H]1OC(=O)c1ccccc1)N2 (stereo not given in full) | 139
7 | COC(=O)C1C2CCC(C[C@@H]1c1ccccc1)N2 (stereo not given in full) | 84.5
8 | COC(=O)C1C2CC[C@H](C[C@@H]1c1ccc(I)cc1)N2C (stereo not given in full) | 36
9 | COC(=O)C1C2CCC(C[C@@H]1c1ccc(Cl)cc1)N2 (stereo not given in full) | 5.45
10 | CCc1ccc([C@H]2C[C@H]3CCC(C2C(=O)OC)N3C)cc1 (stereo not given in full) | 3910
11 | CC(C)OC(=O)C1C2CC[C@H](C[C@@H]1c1ccc(I)cc1)N2C (stereo not given in full) | 285

target: Sodium-dependent serotonin transporter (Rattus norvegicus, UniProt P31652); test: Inhibition of [3H]paroxetine binding to 5-hydroxytryptamine (5-HT) transporter
Sequence (P31652 whole entry): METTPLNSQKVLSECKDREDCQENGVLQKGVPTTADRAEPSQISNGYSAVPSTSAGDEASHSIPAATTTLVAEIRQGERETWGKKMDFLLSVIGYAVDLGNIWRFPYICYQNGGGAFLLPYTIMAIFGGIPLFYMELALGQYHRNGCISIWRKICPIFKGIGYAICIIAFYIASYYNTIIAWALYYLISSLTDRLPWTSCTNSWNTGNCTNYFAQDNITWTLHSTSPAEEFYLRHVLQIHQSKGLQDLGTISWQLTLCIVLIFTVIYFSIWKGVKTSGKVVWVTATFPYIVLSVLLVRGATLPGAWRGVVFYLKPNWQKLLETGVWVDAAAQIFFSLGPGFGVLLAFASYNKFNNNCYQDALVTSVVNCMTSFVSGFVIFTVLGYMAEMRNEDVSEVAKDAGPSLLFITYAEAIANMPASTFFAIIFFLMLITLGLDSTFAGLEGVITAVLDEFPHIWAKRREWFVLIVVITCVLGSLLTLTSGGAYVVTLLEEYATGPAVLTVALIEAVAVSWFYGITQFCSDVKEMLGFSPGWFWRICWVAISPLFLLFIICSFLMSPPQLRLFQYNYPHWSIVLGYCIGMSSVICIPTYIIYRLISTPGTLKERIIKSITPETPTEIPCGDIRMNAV

Row | Compound | IC50 [nM]
12 | COC(=O)C1C2CCC(C[C@@H]1c1ccc(F)cc1)N2 (stereo not given in full) | 68.6
13 | CCc1ccc([C@H]2C[C@H]3CCC(N3)[C@H]2C(=O)OC)cc1 | 8.13
14 | CC(C)OC(=O)[C@@H]1C2CC[C@H](C[C@@H]1c1ccc(I)cc1)N2 | 3.59
15 | COC(=O)[C@@H]1C2CC[C@H](C[C@@H]1c1ccc(I)cc1)N2 | 0.36
16 | COC(=O)C1C2CCC(C[C@@H]1OC(=O)c1ccccc1)N2 (stereo not given in full) | 127
17 | COC(=O)C1C2CCC(C[C@@H]1c1ccccc1)N2 (stereo not given in full) | 156
18 | COC(=O)C1C2CC[C@H](C[C@@H]1c1ccc(I)cc1)N2C (stereo not given in full) | 4.21
19 | COC(=O)C1C2CCC(C[C@@H]1c1ccc(Cl)cc1)N2 (stereo not given in full) | 4.13
20 | CCc1ccc([C@H]2C[C@H]3CCC(C2C(=O)OC)N3C)cc1 (stereo not given in full) | 28.4
21 | CC(C)OC(=O)C1C2CC[C@H](C[C@@H]1c1ccc(I)cc1)N2C (stereo not given in full) | 66.8

target: Sodium-dependent dopamine transporter (Rattus norvegicus, UniProt P23977); test: Inhibition of [3H]WIN-35428 binding to dopamine (DA) transporter
Sequence (P23977 whole entry): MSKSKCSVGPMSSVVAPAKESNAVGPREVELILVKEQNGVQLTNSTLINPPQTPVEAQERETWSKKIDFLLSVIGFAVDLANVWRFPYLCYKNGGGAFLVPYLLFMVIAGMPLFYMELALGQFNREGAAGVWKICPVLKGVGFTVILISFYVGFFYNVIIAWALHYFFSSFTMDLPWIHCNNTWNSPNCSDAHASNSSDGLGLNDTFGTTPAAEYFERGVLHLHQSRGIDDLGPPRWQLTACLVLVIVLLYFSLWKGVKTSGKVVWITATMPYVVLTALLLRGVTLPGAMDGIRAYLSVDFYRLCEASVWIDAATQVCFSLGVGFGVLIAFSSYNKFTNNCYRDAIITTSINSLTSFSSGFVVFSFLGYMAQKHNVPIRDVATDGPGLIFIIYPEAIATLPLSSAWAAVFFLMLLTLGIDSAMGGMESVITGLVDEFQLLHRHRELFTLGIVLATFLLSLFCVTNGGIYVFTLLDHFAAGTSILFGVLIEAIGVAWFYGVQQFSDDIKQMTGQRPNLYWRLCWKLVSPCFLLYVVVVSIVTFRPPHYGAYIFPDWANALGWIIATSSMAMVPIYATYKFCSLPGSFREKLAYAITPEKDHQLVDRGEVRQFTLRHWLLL

Row | Compound | IC50 [nM]
22 | COC(=O)C1C2CCC(C[C@@H]1c1ccc(F)cc1)N2 (stereo not given in full) | 4.39
23 | CCc1ccc([C@H]2C[C@H]3CCC(N3)[C@H]2C(=O)OC)cc1 | 49.9
24 | CC(C)OC(=O)[C@@H]1C2CC[C@H](C[C@@H]1c1ccc(I)cc1)N2 | 1.06
25 | COC(=O)[C@@H]1C2CC[C@H](C[C@@H]1c1ccc(I)cc1)N2 | 0.69
26 | COC(=O)C1C2CCC(C[C@@H]1OC(=O)c1ccccc1)N2 (stereo not given in full) | 206
27 | COC(=O)C1C2CCC(C[C@@H]1c1ccccc1)N2 (stereo not given in full) | 30.8
28 | COC(=O)C1C2CCC(C[C@@H]1c1ccc(Cl)cc1)N2 (stereo not given in full) | 0.62
29 | CCc1ccc([C@H]2C[C@H]3CCC(C2C(=O)OC)N3C)cc1 (stereo not given in full) | 55
30 | CC(C)OC(=O)C1C2CC[C@H](C[C@@H]1c1ccc(I)cc1)N2C (stereo not given in full) | 0.43
